# Bridge positions count the residues as written; N and C are the ends. Peptide text beside a SMILES is read from it.
# Tests used:
# [1] = system: leukocytes and eosinophils recruited to the alveolar space; test: Chronic asthma induced by ovalbumin, bronchoalveolar lavage cell count; type: in vivo, BALB/c mice
# Description: (§1) After the 14th day, the animals were submitted to 3 challenges per week with a 1% OVA aerosol, Immunized animals and challenged only with PBS (phosphate buffered saline) were considered controls. To induce chronic asthma, the animals were challenged 3 times a week during 3 consecutive weeks.
# (§2) For the aerosol challenge, the animals were placed in a closed plastic box adapted with an ultra-sonic nebulizer (US-800, ICEL) and exposed to inhalation of 2 mL of a 1% solution of ovalbumin (grade V, Sigma) in saline, over 20 minutes, 24 h after the last aerosol challenge, the animals were sacrificed with a high dose of chloral hydrate to obtain the peripheral blood, the Broncho-Alveolar Lavage (BAL) and the pulmonary tissue to count the total number of leukocytes and eosinophils.
# (§3) Groups of animals were treated with 4 nmol or 40 nmol of the peptide identified by SEQ ID NO: 7 intranasally and intraperitoneally 30 minutes before each challenge, and orally 1 hour before each challenge. The group of animals with chronic asthma was treated only with 4 nmol or 40 nmol of the peptide identified by SEQ ID NO: 7_intraperitoneally 30 minutes before each challenge.
# (§4) The aerial space was washed with three, 1 mL aliquots of HBSS (Hanks Balanced Salt Solution) EDTA (ethylenediaminetetraacetic acid). After collection, the BAL was immediately centrifuged at 800 rpm for 10 minutes, the supernatant discarded, and the cellular button was re-suspended in 1 mL of HBSS 0.1% BSA (bovine serum albumin) to count the cells. The total cells from the BAL were counted in a Neubauer chamber. Aliquots containing 5×10^5 cells were centrifuged on glass slides using a cytocentrifuge, for 5 minutes at 600 rpm. To determine the percentages of the different cellular populations, the slides were stained with Hema 3 and 300 cells were counted in randomly selected fields. The absolute number of each cellular population in the BAL was obtained by multiplication of the percentages by the total number of cells found in the sample volume.
# [2] = system: leukocytes and eosinophils recruited to the alveolar space; test: Acute pulmonary asthma induced by ovalbumin, bronchoalveolar lavage cell count; type: in vivo, BALB/c mice
# Description: as §1, §2, §3, §4
# [3] = system: recruitment of leukocytes in the peritoneal cavity; test: Prevention of peritonitis induced by LPS; type: in vivo, mice; conditions: 24 h
# Description: Mice were injected intraperitoneally with 4 nmol or 40 nmol of the peptide identified by SEQ ID NO: 7 dissolved in 500 μL of sterile saline solution, 30 minutes prior to administering intraperitoneal injection of LPS (O55:BR 20 μg/mL, Sigma) diluted in 500 μL of sterile saline solution. Animals injected only with sterile saline were considered controls, 24 h after injection of LPS, the animals were sacrificed with a high dose of chloral hydrate to obtain the washing of the peritoneal cavity to count the number of cells (A), neutrophils (B) and macrophages (C). The material removed from the peritoneum was centrifuged for 10 minutes at 1500 rpm and 4° C., the supernatant was separated and frozen at −20° C. for future analyses, while the remaining material containing the cells was re-suspended in PBS 0.1% BSA. The total count was performed in a Neubauer chamber, For the differential count, an aliquot of the cellular suspension was placed on slides and centrifuged (Citospin), stained with Hema 3 and examined under the optical microscope, counting a total of 300 cells. The absolute number of each cellular population was obtained by multiplication of the percentages by the total number of cells found in the sample volume.
# trypsin = target: T1, trypsin (Bos taurus, UniProt P00760); test: Inhibition of trypsin, determination of inhibition constants (Ki); type: biochemical
# T1 construct: gene PRSS1
# T1 sequence (P00760 24-246): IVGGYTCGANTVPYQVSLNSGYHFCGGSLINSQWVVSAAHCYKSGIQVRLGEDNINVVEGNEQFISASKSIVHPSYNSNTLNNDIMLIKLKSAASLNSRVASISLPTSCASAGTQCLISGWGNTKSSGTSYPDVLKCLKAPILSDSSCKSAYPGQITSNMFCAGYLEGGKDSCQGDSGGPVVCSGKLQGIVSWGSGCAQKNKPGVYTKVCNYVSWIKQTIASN
# Description: The substrate utilized was Abz-Phe-Arg-Ser-Ser-Arg-Gln-EDDnp (SEQ ID NO: 11), a fluorescent analog of bradykinin, purified by way of high pressure liquid chromatography, (HPLC) until purity greater than 95% (single peak) was achieved.
# The hydrolysis reactions were conducted using a Hitachi. F-2000 spectrofluorometer, with the excitation and emission slits set at 10 and 20 nm, and the excitation and emission wavelengths at 320 and 420 nm, respectively. The temperature of the reaction cuvette was maintained at 37° C. in a thermostatically controlled compartment.
# The enzymatic activity of trypsin (0.5-5 nM) was determined in 50 mM Tris-HCl buffer, pH 8.0, containing 20 mM NaCl at 37° C., with the addition of approximately 0.1-6.0 μM of the fluorescent substrates. The increase in fluorescence was monitored continually for 5 min in the spectrofluorometer. When necessary, the correction of the fluorescent reading was done using the empiric equation described by Araújo et. al., Biochemistry 25; 8519, 2000. Kinetic data were determined from the initial hydrolysis (consumption of substrate less than 10%) and calculations involving kinetic parameters (Km, Vmáx and kcat) were performed using the Michaelis-Menten equation furnished by the GRAFIT for Windows 3.0 program.
# To determine the inhibition kinetics of trypsin with the peptides of the present invention, three substrate concentrations were used: a) corresponding to half of the value of Km (0.8 μM); b) corresponding to the whole value of Km (1.6 μM); c) corresponding to slightly more than double the value of Km (3.5 μM). […] Incubation carried out at 37° C. Tris-HCl buffer, pH 8.0, containing 20 mM NaCl at 37° C. For characterization of enzymatic inhibition, a Lineweaver-Burk plot was employed (1/V vs 1/S), and the value of Ki was determined from the relation between the apparent inhibition constant (Ki(app)) and the value of Km for the substrate: Ki(app)=[I]/[(v0/vi)−1] and Ki=Ki(app)/[(Km/[S])+1] where; [I]=inhibitor concentration; (v0/vi)=ratio of the hydrolysis velocities in the absence and presence of inhibitor, respectively. Km/[S]=ratio between Km of the substrate and substrate concentration.
# [4] = system: leukocyte rolling in post-capillary venules of the cremaster muscle; conditions: topical, LPS-induced rolling; FIG. 2 and 3
# [5] = 4 nmol or 40 nmol intraperitoneally, FIG. 6
# [6] = 4 or 40 nmol i.p. 30 min before LPS, FIG. 4
compound,measurement,setting,value
"CC[C@H](C)[C@H](N)C(=O)N1CCC[C@H]1C(=O)N[C@@H](CCCNC(=N)N)C(=O)N[C@H]1CSSC[C@@H](C(N)=O)NC(=O)[C@H](CCSC)NC(=O)[C@H](CCCCN)NC(=O)[C@H](C(C)C)NC(=O)CNC(=O)[C@@H]2CCCN2C(=O)[C@H](CCSC)NC(=O)[C@H](CCCCN)NC(=O)[C@H](CCCNC(=N)N)NC1=O [SEQ ID NO: 7, Ile1-Pro2-Arg3-Cys4-Arg5-Lys6-Met7-Pro8-Gly9-Val10-Lys11-Met12-Cys13-NH2] (H-IPRCRKMPGVKMC-NH2; disulfide 4-13)",effect on recruitment of cells to the lung compared with oral dexamethasone 0.3 mg/Kg,[1],similar
same,eosinophils in the bronchoalveolar lavage,[1]; [5],decrease in eosinophils
same,total number of leukocytes recruited to the alveolar space,[1]; [5],provoked a decrease
same,effect on recruitment of cells to the lung compared with oral dexamethasone 0.3 mg/Kg,[2],similar
same,total number of leukocytes recruited to the alveolar space,"[2]; 4 nmol or 40 nmol, all routes (intranasal, intraperitoneal, oral), FIG. 5",provoked a decrease
same,eosinophils in the bronchoalveolar lavage,"[2]; 4 nmol or 40 nmol, all routes, FIG. 5",absence of eosinophils
same,prevention of the recruitment of leukocytes in the peritoneal cavity,"[3]; 4 nmol and 40 nmol i.p. 30 min before LPS, compared to the control",~50%
same,recruitment of macrophages in the peritoneal cavity,[3]; [6],prevented the recruitment
same,recruitment of neutrophils in the peritoneal cavity,[3]; [6],prevented the recruitment
same,Ki,trypsin,20 nM
"CC[C@H](C)[C@H](NC(C)=O)C(=O)N1CCC[C@H]1C(=O)N[C@@H](CCCNC(=N)N)C(=O)N[C@H]1CSSC[C@@H](C(N)=O)NC(=O)[C@H](CCSC)NC(=O)[C@H](CCCCN)NC(=O)[C@H](C(C)C)NC(=O)CNC(=O)[C@@H]2CCCN2C(=O)[C@H](CCSC)NC(=O)[C@H](CCCCN)NC(=O)[C@H](CCCNC(=N)N)NC1=O [SEQ ID NO: 9, Ac-Ile1-Pro2-Arg3-Cys4-Arg5-Lys6-Met7-Pro8-Gly9-Val10-Lys11-Met12-Cys13-NH2] (Ac-IPRCRKMPGVKMC-NH2; disulfide 4-13)",Ki,trypsin,21.8 nM
Cys1-Arg2-Lys3-Met4-Pro5-Gly6-Val7-Lys8-Met9-Cys10 [SEQ ID NO: 12],inhibition of leukocyte rolling (in words),[4],maintained inhibitory activity
Ile1-Pro2-Arg3-Cys4-Arg5-Lys6-Met7-Pro8-Gly9-Val10-Ala11-Met12-Cys13 [SEQ ID NO: 10],inhibition of leukocyte rolling (in words),[4],not efficient
